Measurements: patent US10654843B2, “LMP7 inhibitors” (PRINCIPIA BIOPHARMA INC., priority 2014, dated 2020)
Like-named read-outs stand apart in the source and are kept apart here.

What was measured:
[1] = target: immunoproteasome (LMP7/B5i) (Homo sapiens, UniProt P20618+P28062); test: Caliper-based proteasome assay, immunoproteasome chymotrypsin-like activity; type: biochemical; conditions: human recombinant immunoproteasome 0.3 nM, FAM-labeled peptide substrate 1 μM, room temperature 3 h
Description: (§1) A Caliper-based proteasome assay (Caliper Life Sciences, Hopkinton, Mass.) was used to measure inhibition of the chymotrypsin-like activity of both immunoproteasome (LMP7/B5i) and the constitutive proteasome (B5c) for a compound of Formula (I). Serial dilutions of test compounds were incubated with either human recombinant immunoproteasome or constitutive proteasome (0.3 nM enzyme) and a carboxyfluorescein (FAM)-labeled peptide substrate FAM-TYETFKSIMKKSPF-NH2 (1 μM) at room temperature for 3 h. The reaction buffer was 20 mM Hepes pH 7.4, 0.01% bovine serum albumin, 0.015% SDS, 0.5 mM EDTA, 1% DMSO. The reaction was then terminated with a buffer containing the known proteasome inhibitor carfilzomib at a concentration of 5 uM. The peptide cleavage reaction product was quantified on a Caliper LabChip 3000. Percent inhibition was calculated for each compound dilution and the concentration that produced 50% inhibition was calculated. This value is presented as the IC50.

[2] = target: constitutive proteasome (B5c) (Homo sapiens, UniProt P20618+P28074); test: Caliper-based proteasome assay, constitutive proteasome chymotrypsin-like activity; type: biochemical; conditions: human recombinant constitutive proteasome 0.3 nM, FAM-labeled peptide substrate 1 μM, room temperature 3 h
Description: as §1

[3] = target: T1, proteasome activity in HT-29 cells (enriched in constitutive proteasome) (Homo sapiens, UniProt P28074); test: Inhibition of proteasome activity in cells (Proteasome-Glo), HT-29; type: cell-based; conditions: 2 hr incubation, Suc-LLVY-aminoluciferin, read-out: HT29 IC50
T1 construct: endogenous in cells; host or cells: HT-29
Description: (§2) The cell-based effects of the compound of the present disclosure on immunoproteasome were determined by measuring inhibition of proteasome activity in cells using the Proteasome-Glo™ Cell-Based Reagent (Promega, Madison Wis). The Proteasome-Glo™ assay contains a specific luminogenic proteasome substrate in a buffer optimized for cell permeabilization, proteasome activity, and luciferase activity. For the chymotrypsin-like activity, the peptide substrate is Suc-LLVY-aminoluciferin (Succinyl-leucine-leucine-valine-tyrosine-aminoluciferin). Cleavage of the substrate by proteasome results in luminescent signal which is proportional to the proteasome activity. The cell line THP-1 (a monocytic leukemia cell line enriched in immunoproteasome), the cell line HT-29 (a colorectal adenocarcinoma cell line enriched in constitutive proteasome), and primary human peripheral blood mononuclear cells (PBMC) were used to assess proteasome activity. Cells were seeded in a 96-well plate at 10,000 cells per well in RPMI 1640 high glucose medium with 10% fetal bovine serum (FBS). Compound dilutions were added to cells starting at a concentration of 5 uM and decreasing in tripling dilutions. The final DMSO concentration was 1%. The concentration range was adjusted as needed for compounds of different potencies. The cells treated with compounds were incubated for 2 hr at 37° C. in 5% CO2. At the end of the 2 hour incubation period, cells were transferred to white 384 well assay plates. 20 uL of Proteasome-Glo™ Reagent was added to each well and incubated for 10 minutes at room temperature. The plate was read in the Analyst HT instrument (Molecular Devices, Sunnyvale, Calif.) using luminescence mode. The percent inhibition of activity was plotted as a function of log compound concentration. The IC50 was then calculated for each compound using Prism software from GraphPad Software Inc. (San Diego, Calif).

[4] = target: T2, proteasome activity in primary human peripheral blood mononuclear cells (PBMC) (Homo sapiens, UniProt P28062); test: Inhibition of proteasome activity in cells (Proteasome-Glo), PBMC; type: cell-based; conditions: 2 hr incubation, Suc-LLVY-aminoluciferin
T2 construct: endogenous in cells; host or cells: primary human PBMC
Description: as §2

[5] = target: T3, proteasome activity in HT-29 cells (Homo sapiens, UniProt P28074); test: Durability of binding in cells, wash-out assay (Proteasome-Glo), HT-29; type: cell-based; conditions: 2 hours incubation, washout
T3 construct: endogenous in cells; host or cells: HT-29
Description: The durability of binding of proteasome inhibitors was assessed in cells using wash-out assays and the Proteasome-Glo™ Reagent kit. THP-1 cells, HT-29 cells, or PBMC were incubated with an 8-fold dilution series of inhibitor for 2 hours. Following 2 hours of incubation, cells were washed using 3 occasions of centrifugation followed by resuspension in culture medium. Following inhibitor washout, cells were returned to culture for either 30 minutes, 4 hours, or 18 hours. Cells were then transferred to white 384 plates, and 20 uL of Proteasome-Glo™ Reagent was added to each well for 10 minutes. Plates were then read on an Analyst HT plate reader using luminescence mode. The percent inhibition of activity was plotted as a function of log compound concentration. The IC50 was then calculated for each compound using Prism software from GraphPad.

[6] = 30 minutes in culture, read-out: HT29 (30 min) IC50
[7] = 4 hours in culture, read-out: HT29 (4 h) IC50

IC50 [1] [nM] | IC50 [2] [nM] | IC50 [3] [nM] | IC50 [4] [nM] | IC50 [5, 6] [nM] | IC50 [5, 7] [nM] | Structure (SMILES)
144 | 3950 |  |  |  |  | Cc1ccc(CNC(=O)[C@H](CCCCNC(=O)C(C#N)=CC(C)(C)C)NC(=O)[C@@H](C)NC(=O)c2cc(C)on2)cc1 [Example 21d, N—((R)-1-(((S)-6-(2-cyano-4,4-dimethylpent-2-enamido)-1-((4-methylbenzyl)amino)-1-oxohexan-2-yl)amino)-1-oxopropan-2-yl)-5-methylisoxazole-3-carboxamide]
21 | 147 | 360 | 13 | 3800 | > 5000 | Cc1ccc(CNC(=O)[C@H](Cc2cccc(N(C)C(=O)C(C#N)=CC(C)C)c2)NC(=O)[C@@H](NC(=O)c2cc(C)on2)[C@@H](C)O)c(F)c1 [Example 27, N-((2S,3R)-1-(((S)-3-(3-(2-cyano-N,4-dimethylpent-2-enamido)phenyl)-1-((2-fluoro-4-methylbenzyl)amino)-1-oxopropan-2-yl)amino)-3-hydroxy-1-oxobutan-2-yl)-5-methylisoxazole-3-carboxamide]
64 | 3210 |  |  |  |  | Cc1ccc(CNC(=O)[C@H](Cc2cccc(NC(=O)C(C#N)=CC(C)C)c2)NC(=O)[C@@H](NC(=O)c2cc(C)on2)[C@@H](C)O)cc1 [Example 24, N-((2S,3R)-1-(((S)-3-(3-(2-cyano-4-methylpent-2-enamido)phenyl)-1-((4-methyl-benzyl)amino)-1-oxopropan-2-yl)amino)-3-hydroxy-1-oxobutan-2-yl)-5-methylisoxazole-3-carboxamide]
31 | 274 |  |  |  |  | Cc1ccc(CNC(=O)[C@H](COc2cccc(C=C(C#N)C(=O)N(C)C)c2)NC(=O)[C@@H](NC(=O)c2cc(C)on2)[C@@H](C)O)cc1 [Example 1, N-((2S,3R)-1-(((S)-3-(3-(2-cyano-3-(dimethylamino)-3-oxoprop-1-en-1-yl)phenoxy)-1-((4-methylbenzyl)amino)-1-oxopropan-2-yl)amino)-3-hydroxy-1-oxobutan-2-yl)-5-methylisoxazole-3-carboxamide]
103 | 788 |  |  |  |  | Cc1ccc(CNC(=O)[C@H](CC2CCN(C(=O)C(C#N)=CC(C)C)CC2)NC(=O)[C@@H](NC(=O)c2cc(C)on2)[C@@H](C)O)cc1 [Example 29, N-((2S,3R)-1-(((S)-3-(1-(2-cyano-4-methylpent-2-enoyl)piperidin-4-yl)-1-((4-methylbenzyl)amino)-1-oxopropan-2-yl)amino)-3-hydroxy-1-oxobutan-2-yl)-5-methylisoxazole-3-carboxamide]
11 | 2140 |  |  |  |  | Cc1ccc(CNC(=O)[C@H](COc2cccc(C=C(C#N)C(=O)NC(C)(C)C)c2)NC(=O)[C@@H](NC(=O)c2cc(C)on2)[C@@H](C)O)c(F)c1 [Example 7, N-((2S,3R)-1-(((S)-3-(3-(3-(tert-butylamino)-2-cyano-3-oxoprop-1-en-1-yl)phenoxy)-1-((2-fluoro-4-methylbenzyl)amino)-1-oxopropan-2-yl)amino)-3-hydroxy-1-oxobutan-2-yl)-5-methylisoxazole-3-carboxamide]
37 | 704 |  |  |  |  | Cc1ccc(CNC(=O)[C@H](CCCCN(C)C(=O)C(C#N)=CC(C)C)NC(=O)[C@@H](NC(=O)c2cc(C)on2)[C@@H](C)O)cc1 [Example 22, N-((2S,3R)-1-(((S)-6-(2-cyano-N,4-dimethylpent-2-enamido)-1-((4-methylbenzyl)-amino)-1-oxohexan-2-yl)amino)-3-hydroxy-1-oxobutan-2-yl)-5-methylisoxazole-3-carboxamide]
20 | 61 | 84 | 13 | > 5000 | > 5000 | Cc1ccc(CNC(=O)[C@H](CCc2cccc(C=C(C#N)C(=O)N(C)C)c2)NC(=O)[C@@H](NC(=O)c2cc(C)on2)[C@@H](C)O)cc1 [Example 15, N-((2S,3R)-1-(((S)-4-(3-(2-cyano-3-(dimethylamino)-3-oxoprop-1-en-1-yl)phenyl)-1-((4-methylbenzyl)amino)-1-oxobutan-2-yl)amino)-3-hydroxy-1-oxobutan-2-yl)-5-methylisoxazole-3-carboxamide]
5 | 143 | 646 | 23 | > 5000 |  | Cc1ccc(CNC(=O)[C@H](CCCCNC(=O)C(C#N)=CC(C)C)NC(=O)[C@@H](NC(=O)c2cc(C)on2)[C@@H](C)O)cc1 [Example 21, N-((2S,3R)-1-(((S)-6-(2-cyano-4-methylpent-2-enamido)-1-((4-methylbenzyl)-amino)-1-oxohexan-2-yl)amino)-3-hydroxy-1-oxobutan-2-yl)-5-methylisoxazole-3-carboxamide]
17 | 120 | 200 | 10 | 580 | > 5000 | Cc1ccc(CNC(=O)[C@H](COc2cccc(C=C(C#N)n3cncn3)c2)NC(=O)[C@@H](NC(=O)c2cc(C)on2)[C@@H](C)O)cc1 [Example 8a, N-((2S,3R)-1-(((S)-3-(3-(2-cyano-2-(1H-1,2,4-triazol-1-yl)vinyl)phenoxy)-1-((4-methylbenzyl)amino)-1-oxopropan-2-yl)amino)-3-hydroxy-1-oxobutan-2-yl)-5-methylisoxazole-3-carboxamide]
29 | 1450 | 1180 | 15 | > 5000 | > 5000 | Cc1ccc(CNC(=O)[C@H](Cc2cccc(N(C)C(=O)C(C#N)=CC(C)C)c2)NC(=O)[C@@H](NC(=O)c2cc(C)on2)[C@@H](C)O)cc1 [Example 25, N-((2S,3R)-1-(((S)-3-(3-(2-cyano-N,4-dimethylpent-2-enamido)phenyl)-1-((4-methylbenzyl)amino)-1-oxopropan-2-yl)amino)-3-hydroxy-1-oxobutan-2-yl)-5-methylisoxazole-3-carboxamide]
